The results in this text go back to ChEMBL document CHEMBL3507680, “University of Dundee, Gates Library screen for HepG2 cell viability”.

Structures are written as SMILES.

The data set is described as follows: Human HepG2 cell viability assay in 384 well format. Format: toxicity, cell-based. The arrangement: dose 125 nL, time 70.5 hour; cytotoxicity at 70.5 h: concentration not given beside the values. Conditions: HepG2 cells, read-out: Inhibition.
As to `Cc1occc1C(=O)NCc1ccc(N2CCCC(C(N)=O)C2)cc1` (centres undefined), the cytotoxicity at 70.5 h is -6.48%.
Consider `CN1CCN(Cc2nnc(C3CCN(C4CCCCC4)CC3)n2C)CC1`, for which the cytotoxicity at 70.5 h was -27.4%.
Regarding `c1ccc(C2CN(c3ncnc4[nH]cnc34)CCO2)cc1` (centres undefined), the cytotoxicity at 70.5 h is -8.36%.
To `COCCN1C[C@@H]2CN(c3ncccn3)C[C@@H]2C1=O` belongs -7.68%; to `O=S(=O)(NCC1(c2cccs2)CCOCC1)c1ccc2c(c1)OCCO2`, 12%; to `Cc1ccc2nc(CN(C)Cc3[nH]nc4c3CCC4)[nH]c2c1C`, 6.49%.
For `Cc1ccccc1NC(=O)N1CC[C@@H]2CN(CC(C)C)S(=O)(=O)[C@@H]2CC1`, the cytotoxicity at 70.5 h is -9.9%.
Turning to `Cc1noc(C)c1-c1cncc(C2CCCN2Cc2cncnc2)n1` (centres undefined), the cytotoxicity at 70.5 h is -20.4%.
Under `O=C(CC1=CCCCC1)Nc1ncn(CC(=O)N2CCCCCC2)n1` stands -6.09%.
For the compound `COc1ccc(-c2nc(CNC3CCc4nc(C)nn4C3)no2)cc1` (centres undefined), the cytotoxicity at 70.5 h was -3.37%.
Under `CNC(=O)N1CC[C@@H]2CN(Cc3ccccc3)S(=O)(=O)[C@@H]2CC1` stands -6.18%.
Regarding `CC(CNC(=O)Nc1cn[nH]c1)N1CCCC1` (centres undefined), the cytotoxicity at 70.5 h was found to be 2.24%.
In the case of `COc1ccc(C(O)CNC(=O)NCc2nc(C)cs2)cc1` (centres undefined), the cytotoxicity at 70.5 h is -3.39%.
As for `COCCNC(=O)[C@H]1CN(c2nnc(C)s2)C[C@H]2OCC[C@@H]12`, the cytotoxicity at 70.5 h was -17.6%.
As to `Cn1cc(S(=O)(=O)NC(=O)C2(c3ccccc3)CCC2)cn1`, the cytotoxicity at 70.5 h was -4.68%.
As for `OCC(O)CSCc1cn(-c2ccc(Cl)c(Cl)c2)nn1` (centres undefined), the cytotoxicity at 70.5 h is -5.28%.
`Cc1ccc2nc(CNCCCN3CCCC3=O)cc(O)c2c1`: the cytotoxicity at 70.5 h amounted to 14.6%.
In the case of `CC(C)CN1CCN(C)C2(CCN(c3nccs3)CC2)C1=O`, the cytotoxicity at 70.5 h was found to be 33.2%.
To `Cc1cc(NC(=O)N2CCN(C)CC2C)n(CCC#N)n1` (centres undefined) belongs 18.4%; to `Cc1ccccc1CN(C)C(=O)CCc1nc(-c2nnc[nH]2)no1`, 8.55%.
Under `CC(C)OCc1noc(C2CCCOC2)n1` (centres undefined) stands -10.6%.
Turning to `Cc1ccc(CN2CCC3(CCN(Cc4ccncc4)CC3)CC2)cc1`, the cytotoxicity at 70.5 h is -3.02%.
For `O=C(COc1ccccc1)N1CCC[C@]2(C[C@@H](OCC3CC3)CO2)C1`, the cytotoxicity at 70.5 h is 0.205%.
With `CSc1ccc(CN(CCO)C(=O)CCOc2ccccc2)cc1`, the cytotoxicity at 70.5 h was -7.56%.
Under `CN(C)S(=O)(=O)N1CCN(CC2CCOc3ccccc3C2)CC1` (centres undefined) stands -4.7%; under `COC(=O)[C@H]1CN(S(C)(=O)=O)CCN1S(C)(=O)=O`, -2.09%; under `CCNC(=O)N1CCC(=Cc2ccccc2)CC1`, 1.05%.
Under `CC(COCC(F)(F)F)NC(=O)c1ccc(-c2ccco2)[nH]c1=O` (centres undefined) stands -1.67%; under `N#Cc1cc2c(=O)n(CC(O)c3cccc(O)c3)ccc2[nH]c1=O` (centres undefined), -6.53%.
To `CC(C)C(=O)NCc1ccnc(Oc2ccc(F)cc2)c1` belongs -5.04%.
Consider `CS(=O)(=O)N1CCCC12CCN(Cc1nccs1)CC2`, for which the cytotoxicity at 70.5 h was -3.49%.
Take `COCCCn1ccc(NS(=O)(=O)c2cc(C)c(F)cc2F)n1`: the cytotoxicity at 70.5 h is -15.7%.
Under `COc1nccnc1-c1cc(NC2CCNCC2)nc2[nH]ccc12` stands -0.195%; under `COc1ccccc1Oc1ncccc1CNC(=O)C(O)C(F)(F)F` (centres undefined), -5.77%; under `COc1cc(NC(=O)c2ccc(CN3CC[C@H](O)C3)cc2)cc(OC)c1`, -10.7%.
Consider `CCOCC1CN(Cc2cnn(C)c2)Cc2c1cnn2CC` (centres undefined), for which the cytotoxicity at 70.5 h turned out to be 7.67%.
To `c1ccc(Cn2cc(CNC3CCc4ncnn4C3)cn2)cc1` (centres undefined) belongs -7.61%; to `O=C(NCc1cccs1)C1CCN(c2cc(-n3ccnc3)ncn2)CC1`, -0.911%.
Take `Cc1cc(CNC(=O)CCc2c(C)nc3cc(O)nn3c2C)no1`: the cytotoxicity at 70.5 h is -6.68%.
Under `Cc1ccc(CNC(=O)c2ccc(F)cc2)o1` stands -8.9%.
Under `O=C(c1cncc(N2CC[C@@]3(O)CCNC[C@H]3C2)n1)N1CCCC1` stands -3.92%.
Consider `Cn1cnnc1C1CCCN(C(=O)NCc2ccccc2)C1` (centres undefined), for which the cytotoxicity at 70.5 h stood at 1.38%.
Under `CN(C)CCN(CC1CCCO1)C(=O)Cc1cn2ccccc2n1` (centres undefined) stands 17.3%; under `Cc1cc(C)cc(OCCN(C)C2CCOC2=O)c1` (centres undefined), 1.42%; under `COc1nccc(N2CC[C@@H](N3CCCCCC3)[C@H](O)C2)c1C#N`, -11.1%.
`CN(C)C(=O)N1CCN(C(=O)c2ccc(Cl)cc2)CC2(CNC(=O)C2)C1` (centres undefined): the cytotoxicity at 70.5 h was 11%.
Under `CCOCCCNCc1cc(O)c2cc(C)ccc2n1` stands 22.7%.
Under `COc1ccc(-c2nc(C)cc(SCC(N)=O)n2)cc1` stands -2.23%.
To `COc1cccc2c1ccn2CCC(=O)Nc1c2c(nn1C)CSC2` belongs -11.9%.
For `CC(C)N(Cc1ccc(C(F)(F)F)nc1)Cc1cnn(C)c1`, the cytotoxicity at 70.5 h is -6.85%.
Take `COc1ccc(NC(C)c2ccc(C#N)cc2)cc1N1CCCC1=O` (centres undefined): the cytotoxicity at 70.5 h came out at 1.58%.
With `CC(C)Nc1nc2c(s1)C(=O)CN(CC1CC1)C2`, the cytotoxicity at 70.5 h is 2.03%.
`O=C(NC1CC1)N1CCc2ncc(CN3CCOCC3)n2CC1`: the cytotoxicity at 70.5 h was -16%.
To `c1ccc(OCCCN2CCN(c3ccc4nncn4n3)CC2)cc1` belongs 2.05%.
To `CCC(C)NC(=O)c1ccc(-c2ccco2)[nH]c1=O` (centres undefined) belongs -5.06%.
To `CCS(=O)(=O)NCCNc1c(C#N)cnc2c(C)cc(F)cc12` belongs 2.54%; to `COc1ccc(CN(C)CCS(=O)(=O)c2ccc(Cl)cc2)cc1OC`, -12.9%; to `Cc1oc(C)c(C(=O)Nc2ccccn2)c1C`, -10.7%.
Consider `Cc1cccc(Cn2c3c(ccc2=O)CCN(Cc2ccoc2)CC3)n1`, for which the cytotoxicity at 70.5 h is -9.52%.
To `CCc1[nH]ncc1C(=O)N1CCCC(n2ccnc2C)C1` (centres undefined) belongs -7.72%; to `CN(CC(=O)NC1(C)CCS(=O)(=O)C1)Cc1ccc(Br)cc1` (centres undefined), 7.79%.
Regarding `Cc1c[nH]c(CN(C)C(C(=O)O)c2c(F)cccc2Cl)n1` (centres undefined), the cytotoxicity at 70.5 h was 1.26%.
To `COCC(c1cccc(C(F)(F)F)c1)N(C)C(=O)c1ccccn1` (centres undefined) belongs -4.66%; to `COc1ccc(OCC2CCCN(Cc3ccncc3)C2)cc1` (centres undefined), -12.6%.
To `COC(=O)NCCC(=O)NC(C)Cc1cccc(Br)c1` (centres undefined) belongs 2.65%; to `CNC(=O)c1cn2cc(-c3cccc(Cl)c3)n(CC=C(C)C)c(=O)c2n1`, -5.75%; to `OC[C@H]1CN2CCN(c3ccccn3)C[C@@H]2[C@@H]1c1ccccc1`, -5.54%.
On to `NC(=O)c1cccc(CCNC(=O)N2Cc3ccccc3C2)c1`, for which the cytotoxicity at 70.5 h is -2.71%.
Take `CCn1cc(NC(=O)NCC2(N3CCOCC3)CCSC2)cn1` (centres undefined): the cytotoxicity at 70.5 h is -1.94%.
Take `CCN(C)C(=O)CCC(=O)c1cccs1`: the cytotoxicity at 70.5 h was -7.69%.
To `Cn1cc(CN2CCC3(CC2)CCN(C(=O)c2cscn2)C3)cn1` belongs -3.37%.
`COc1ccc(CCNC(=O)C(C)Nc2cccc(C)c2C)cc1` (centres undefined): the cytotoxicity at 70.5 h was -4.88%.
On to `COC(=O)c1cccc(-c2c[nH]c(C)n2)c1`, for which the cytotoxicity at 70.5 h is -7.21%.
Under `Cc1cc(C(=O)N2CC[C@@H]3CN(c4ncccn4)CCO[C@@H]3C2)c(C)o1` stands -12.2%; under `CC1CCC(NC(=O)Nc2ccc(CC(=O)N(C)C)cc2)CC1` (centres undefined), -5.4%.
To `CCc1ccc(C(=O)O)cc1S(=O)(=O)Nc1ccc(F)c(C#N)c1` belongs 6.85%; to `Cn1ncc2c1NC(=O)CC2c1ccc(F)cc1` (centres undefined), 1.96%.
Regarding `CCc1nc(CC(=O)N2CCn3c(nnc3C(C)C)C2)cs1`, the cytotoxicity at 70.5 h is 0.586%.
Under `CC1CN(CC(=O)NCc2ccccn2)CCN1Cc1nccn1C` (centres undefined) stands -3.22%.
To `NC(=O)c1ccc(OCC(=O)NS(=O)(=O)c2ccc3c(c2)CCC3)cc1` belongs -2.69%.
Under `O=C(c1ccsc1)N1CCN2C[C@H](OCc3ccccn3)C[C@H]2C1` stands -10.1%.
Take `Cc1ccc(N2CCC3(CCCN(C(=O)c4cccnc4)C3)C2)nn1` (centres undefined): the cytotoxicity at 70.5 h was determined as 18.8%.
Regarding `O=C(CCc1nccs1)N1CCC(C(=O)O)(c2ccccc2)CC1`, the cytotoxicity at 70.5 h is -0.696%.
Under `CC(NC(=O)c1cccs1)C(=O)NS(=O)(=O)Cc1ccc(C#N)cc1` (centres undefined) stands 4.04%; under `Cc1cnccc1-n1nc(C(C)C)nc1CS(C)(=O)=O`, -9.46%.
Under `CN1CCN(Cc2ccccc2CNC(=O)c2ccc(Cl)cc2F)CC1` stands 3.69%; under `Cc1noc(C)c1CN1CC[C@H]2[C@H]1CCN2CC1CCOCC1`, -5.25%; under `NC(=O)c1cccc(CNC(=O)NCCOc2ccc(F)c(F)c2)c1`, -2.9%.
Under `c1nc(CCC2CCCCN2)cc(N2CCCC2)n1` (centres undefined) stands 1.23%; under `CCOCC1c2c(ncn2C)CCN1C(=O)c1cscn1` (centres undefined), 21.3%.
Take `Cc1nc2n(n1)CC(Nc1nc(C(F)(F)F)nc3ccccc13)CC2` (centres undefined): the cytotoxicity at 70.5 h was -1.15%.
Regarding `Cc1cc2c(c(-c3cnccn3)c1)OC(CN)C2` (centres undefined), the cytotoxicity at 70.5 h is -6.44%.
To `NC(=O)[C@@H]1CCCN1C(=O)c1cn(C/C=C/c2ccccc2)nn1` belongs -14%; to `CN(Cc1ccc(CCC(C)(C)O)cc1)Cc1cccc(O)c1`, -8.03%; to `Cc1noc(C)c1S(=O)(=O)N1CCC(Oc2cccnn2)CC1`, -0.269%.
For `Cc1nn(C)cc1-c1ccnc(N2CCN(c3ccccc3)C(=O)C2)n1`, the cytotoxicity at 70.5 h is -3.19%.
Under `CS(=O)(=O)N1CC[C@H]2O[C@H](C(=O)NCc3cccnc3)CC[C@H]21` stands 0.629%; under `CC1CCN(CCNC(=O)c2ccn(-c3ccc(F)cc3)n2)CC1`, -5.04%; under `CN1CCNC(=O)C12CCN(Cc1ccco1)CC2`, -8.79%.
